For assay [1], the system named is podocytes of animals with adriamycin induced nephropathy. Conditions: animals treated with clopidogrel as in Example 2, vs untreated adriamycin nephropathy animals.
Assay [2] deals with adriamycin induced nephropathy in BALB/c mice. As to the method:
Control mice were injected with 0.9% saline. At least 6 mice were analyzed per group. Mice were monitored daily for signs of pain, altered movement, or reduced food uptake and sacrificed by cervical dislocation. Tested drugs were administered per oral administration via pre-mixed chow at drug doses based on literature research.
Urinary albumin levels were assessed by ELISA, urinary total protein and urinary creatinine levels were measured on the Roche Cobas system, using routine laboratory kits. Urinary protein/creatinine (UPCR) ratio and urinary albumin/creatinine ratio (UACR) were assessed at different time points. Weight and physical fitness scores were monitored on a daily basis. At the end of the experiment, tissue sections, plasma and urine samples were collected and stored until further analysis.
Repeated measures ANOVA across timepoints was calculated using the R statistical software framework.

The subject of assay [3] is Adriamycin nephropathy in Balb/c mice. The procedure:
Adriamycin (Doxorubicin; Sigma, D1515-10 mg) was diluted in ddH2O. To induce FSGS, a dose of 10.5 mg/kg mouse was injected i.v. into the tail vein using 27G needles, i. e. a total volume of 200 μl volume per 25 g mouse.
For tail vein injection, mice were anaesthetized using Ketanest (Pfizer, 25 mg/ml vials) and Rompun (Bayer, 20 mg/ml injection solution). A final mix of 12.5 mg/ml Ketanest and 0.25% Rompun in 0.9% NaCl solution was prepared and 200 μl/25 g mouse were injected.
Female Balb/c mice were obtained from the animal breeding facility of the Medical University (Abteilung kir Labortierkunde, Himberg, Austria). 12-16 weeks old animals with a weight >20 g were used for the experiments and adjusted for weight and age. Animals were allowed acclimatization of at least 7 days. Animals were marked by ear or toe clip codes to allow identification. Adriamycin nephropathy in Balb/c mice is the most commonly used animal model for preclinical FSGS studies and shares the central features with human FSGS.
Standard commercial chow from ssniff (ssniff Spezialdiaten GmbH, Soest, Germany) contained crude protein (19%), crude fat (3.3%), crude fiber (4.9%), crude ash (6.4%), starch (36.5%), sugar (4.7%). […] All animals were allowed to eat ad libitum assuming a daily average uptake of ˜4 grams/mouse (according to animal care guideline of the Johns Hopkins University,
Spot urine was collected every week and Creatinine and protein levels were measured.
Urinary albumin was measured by ELISA. 96-well plates were coated over night at 4° C. with 100 μl antibody solution Anti Mouse Serum Albumin antibody (Abcam ab34807, Lot GR3242102-4; diluted 1:2,000) in coating buffer (3.7 g NaHCO3; 0,64 g Na2CO3; 1L distilled water). The remaining procedure was performed at room temperature. Wells were washed 3× with HBSS (Sigma H8264-500 ML) +0,05% Tween-20 (Bio-Rad, #1706531) and blocked in ELISA/ELISPOT Diluent (eBioscience, 00-4202-56) and washed again for 3×. Samples and standard curve were both diluted in ELISA/ELISPOT diluent were incubated for 2 h, followed by 3 wash steps with HBSS+0,05% Tween-20, incubated with HRP antibody Anti Mouse Serum Albumin antibody (Abcam ab19195, Lot GR3242102-4; diluted 1:100,000) for 1 h, followed by 5 wash steps. Reaction was developed with TMB One Solution (Promega, G7431) and stopped with 2N H2SO4. Standard curves were generated with Mouse Albumin (Merck/Sigma, 126674-25MG). 450 nm absorbance was measured on an Epoch Microplate reader (BioTek) using GenS 1.10 software.
At the end of the experiment kidneys were removed, embedded in paraffin and PAS (Periodic acid-Schiff) staining was performed. Histology was thoroughly evaluated and the amount of sclerotic glomeruli and protein casts was quantified.
R version 4.0.2 was used for statistical analysis. Student's t-test was used for comparing UPCR and UACR values between samples from treated and control mice for each individual time point and to assess differences in histological parameters. Repeated measures ANOVA was performed to analyse the drug's impact on UPCR and UACR over time using the respective functions in the rstatix package (V0.6.0). ggplot2 (V3.3.2) and ggpubr (V0.4.0) packages were used for generating the graphical visualizations.
In two independent experiments (Experiment 1 and 2), 34 female Balb/c mice were injected with 10.5 mg/kg adriamycin into the tail vein (see table 2). […] Spot urine was collected weekly, kidneys were harvested at sacrifice. 10.5 mg/kg Adriamycin were injected into the tail vein. […] Urine was collected and weight was measured weekly. The experiments lasted about 5 weeks.

A value given as a limit tells only on which side of the number the result lay.

Consider `COC(=O)[C@H](c1ccccc1Cl)N1CCc2sccc2C1` [Clopidogrel, (S)-Methyl-(2-chlorphenyl)-2-(6,7-dihydro-4H-thieno[3,2-c]pyridin-5-yl)acetate], for which, in assay [1], the “podocyte injury (podocytopathy) by electron microscopy” value was “significantly reduced podocyte injury”. The “UPCR at 37 days after start, compared with Ctrl mice” value in assay [2] (FIG. 1, mice could recover from Adriamycin induced FSGS in this experiment) is “reduced to similar levels”. Also, the “effect of drug administration on UPCR, repeated measures ANOVA across timepoints” value in assay [2] (adriamycin approx. 9 mg/kg, drug via pre-mixed chow, p=0.009 (drug)) is on record as “significant”. In addition, the “glomerular sclerosis index (sclerotic glomeruli of all glomeruli), highest reached in any sample” value in assay [3] (PAS staining, untreated control group went up to 35%) is at most 4%. For the same molecule, the “reduction of UPCR (urinary protein to creatinine ratio)” value in assay [3] (both experiments together, average across all time points, chow + 200 mg/kg Clopidogrel (~25-30 mg/kg mouse/day) from 48 h after adriamycin 10.5 mg/kg i.v., vs control mice) came out at 49%. Moreover, the “reduction of UACR (urinary albumin to creatinine ratio)” value in assay [3] (both experiments together, average across all time points, chow + 200 mg/kg Clopidogrel, vs control mice) was 61%. In addition, the “average histopathological damage score” value in assay [3] (clopidogrel-treated group, control average 2.67, p=0.038) is given as 0.86. Moreover, the “severe disease (glomerular sclerosis)” value in assay [3] (histopathology, FIG. 8A, B) is “completely prevented severe disease”. For the same molecule, the “reduction of ADR-associated weight loss” value in assay [3] (overall, both experiments, weight measured weekly, vs control mice) was determined as 48%. Further, the “tubular ectasia, determined by protein cylinders in PAS staining” value in assay [3] (vs control group, FIG. 8C) was “strongly ameliorated”. For the same molecule, the “weight loss compared to control mice” value in assay [3] (weekly over the course of the experiments) is “less weight loss”.

For the origin of these results see patent US20240016785A1 (Delta 4 GmbH, priority 2020, published 2024).
